The text below walks through data of ChEMBL document CHEMBL2380231, “X-ray crystal structure of ERK5 (MAPK7) in complex with a specific inhibitor” (J Med Chem, 2013).

Active and inactive are the calls of the source. The calls are words filed in the database; no cut-off is given here.

Holding throughout (assay type): cell-based
Experiment [1] has as its target T1, Mitogen-activated protein kinase 7 (Homo sapiens, UniProt Q13164). In words: Inhibition of GST-tagged full length human ERK5 transfected in HEK293 cells assessed as inhibition of AP1 transcriptional activity after 24 hrs by dual luciferase reporter gene assay. Background: Reporter assays use an easily measured gene product as a stand-in for the process of interest.
Target sequence in this assay (Q13164 whole entry): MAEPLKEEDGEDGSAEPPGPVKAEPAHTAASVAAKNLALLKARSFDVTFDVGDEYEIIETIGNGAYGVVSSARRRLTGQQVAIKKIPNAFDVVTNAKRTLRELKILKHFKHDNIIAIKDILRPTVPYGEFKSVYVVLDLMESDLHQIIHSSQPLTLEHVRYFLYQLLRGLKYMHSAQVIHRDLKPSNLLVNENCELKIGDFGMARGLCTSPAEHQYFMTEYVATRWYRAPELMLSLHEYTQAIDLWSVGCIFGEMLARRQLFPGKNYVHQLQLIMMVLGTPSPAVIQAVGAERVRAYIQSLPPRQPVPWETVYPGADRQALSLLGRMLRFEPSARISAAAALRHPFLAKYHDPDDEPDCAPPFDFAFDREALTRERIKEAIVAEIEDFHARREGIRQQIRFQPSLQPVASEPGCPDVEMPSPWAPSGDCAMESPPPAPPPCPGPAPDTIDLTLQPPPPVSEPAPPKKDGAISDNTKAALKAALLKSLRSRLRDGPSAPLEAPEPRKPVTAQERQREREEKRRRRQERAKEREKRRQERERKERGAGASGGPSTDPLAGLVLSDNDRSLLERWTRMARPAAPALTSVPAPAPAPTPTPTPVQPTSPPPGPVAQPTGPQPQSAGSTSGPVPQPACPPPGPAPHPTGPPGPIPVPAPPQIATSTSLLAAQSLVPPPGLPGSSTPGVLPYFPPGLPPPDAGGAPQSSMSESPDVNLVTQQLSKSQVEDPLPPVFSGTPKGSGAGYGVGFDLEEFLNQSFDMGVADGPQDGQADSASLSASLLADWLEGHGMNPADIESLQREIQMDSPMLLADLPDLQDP

Experiment [2] has as its target T2, Mitogen-activated protein kinase; ERK1/ERK2 (Homo sapiens) (UniProt P27361+P28482). Description: Inhibition of ERK1/ERK2 phosphorylation in sorbitol-stimulated human HeLa cells at 0.04 to 5 uM incubated for 1 hr prior to sorbitol stimulation measured after 30 mins by Western blot analysis. In general terms: A western blot detects proteins with antibodies after separation by electrophoresis.

The target of experiment [3] is T2, Mitogen-activated protein kinase; ERK1/ERK2 (Homo sapiens). In words: Inhibition of total ERK1/ERK2 in sorbitol-stimulated human HeLa cells at 0.04 to 5 uM incubated for 1 hr prior to sorbitol stimulation measured after 30 mins by Western blot analysis.
The target in experiment [4] is T1, Mitogen-activated protein kinase 7. In words: Inhibition of ERK5 autophosphorylation in sorbitol-stimulated human HeLa cells at 0.04 to 5 uM incubated for 1 hr prior to sorbitol stimulation measured after 30 mins by Western blot analysis.
Target sequence in this assay (Q13164 2-816 limits assumed): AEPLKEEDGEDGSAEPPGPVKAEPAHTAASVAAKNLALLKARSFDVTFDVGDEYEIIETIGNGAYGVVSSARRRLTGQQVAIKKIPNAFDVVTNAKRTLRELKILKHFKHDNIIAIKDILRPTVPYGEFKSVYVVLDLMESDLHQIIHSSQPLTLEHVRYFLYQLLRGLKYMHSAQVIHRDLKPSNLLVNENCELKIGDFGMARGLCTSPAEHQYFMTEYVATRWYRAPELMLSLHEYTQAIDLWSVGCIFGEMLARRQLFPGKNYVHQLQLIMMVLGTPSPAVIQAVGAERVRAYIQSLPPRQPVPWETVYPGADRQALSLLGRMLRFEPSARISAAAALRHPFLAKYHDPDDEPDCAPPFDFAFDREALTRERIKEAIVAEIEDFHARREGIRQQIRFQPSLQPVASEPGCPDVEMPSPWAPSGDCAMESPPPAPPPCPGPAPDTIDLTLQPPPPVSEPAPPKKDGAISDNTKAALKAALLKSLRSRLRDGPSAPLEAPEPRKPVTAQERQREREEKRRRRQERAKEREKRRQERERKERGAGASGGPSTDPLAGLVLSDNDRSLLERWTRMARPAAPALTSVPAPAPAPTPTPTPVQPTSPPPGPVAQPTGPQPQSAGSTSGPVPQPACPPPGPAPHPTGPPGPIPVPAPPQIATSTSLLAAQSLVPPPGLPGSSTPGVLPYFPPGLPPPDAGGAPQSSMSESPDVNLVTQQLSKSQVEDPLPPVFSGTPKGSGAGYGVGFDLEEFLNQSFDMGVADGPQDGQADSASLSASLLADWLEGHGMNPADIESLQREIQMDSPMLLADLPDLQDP

T2 sequence (P27361 whole entry, looked up): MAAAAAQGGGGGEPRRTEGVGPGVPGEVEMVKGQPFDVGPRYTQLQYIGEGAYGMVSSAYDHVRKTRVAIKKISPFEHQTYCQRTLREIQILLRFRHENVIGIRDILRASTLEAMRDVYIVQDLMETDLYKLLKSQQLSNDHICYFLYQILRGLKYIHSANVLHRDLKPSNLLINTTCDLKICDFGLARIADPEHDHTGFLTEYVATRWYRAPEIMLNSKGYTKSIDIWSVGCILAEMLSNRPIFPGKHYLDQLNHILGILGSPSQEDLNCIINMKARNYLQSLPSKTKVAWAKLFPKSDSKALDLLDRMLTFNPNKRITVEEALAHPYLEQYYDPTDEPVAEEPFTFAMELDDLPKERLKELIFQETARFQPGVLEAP
T2 sequence (P28482 whole entry, looked up): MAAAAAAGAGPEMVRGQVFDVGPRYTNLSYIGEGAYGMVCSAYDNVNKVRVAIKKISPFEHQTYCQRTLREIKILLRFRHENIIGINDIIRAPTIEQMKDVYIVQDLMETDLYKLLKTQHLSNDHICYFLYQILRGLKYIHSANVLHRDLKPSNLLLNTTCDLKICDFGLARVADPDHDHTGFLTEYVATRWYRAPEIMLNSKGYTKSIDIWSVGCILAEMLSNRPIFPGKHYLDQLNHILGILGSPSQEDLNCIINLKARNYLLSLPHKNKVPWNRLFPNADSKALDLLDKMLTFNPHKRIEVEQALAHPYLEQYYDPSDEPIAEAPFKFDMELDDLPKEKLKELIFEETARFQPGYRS

On to `COc1cc(C(=O)N2CCC(N3CCN(C)CC3)CC2)ccc1Nc1ncc2c(n1)N1CCc3cccc(c31)C(=O)N2C`, for which, in experiment [1], the EC50 (as a rule, the concentration at which the effect is half-maximal) is greater than 30 µM.
`CCOc1cc(C(=O)N2CCC(N3CCN(C)CC3)CC2)ccc1Nc1ncc2c(n1)N(C1CCCC1)c1ccccc1C(=O)N2C`: the inhibition result in experiment [2] and in experiment [3] was “inactive” in each case. Further, in experiment [4], the inhibition entry is “Active”.
